Results reported in patent US6399580B1, “Methods and compositions for stimulating tissue growth and epithelial moisturization” (The Regents of the University of California, priority 1994, dated 2002).

Experiments:
Assay type in all cases: in vivo
[1] = test system: intact hairless mouse skin; assay: Transepidermal water loss after topical application; conditions: BrCBE 325 nmol topical once daily, after four daily applications
Protocol: (§1) To determine whether inhibitors of β-glucocerebrosidase would cause more profound effects than applications of exogenous GlcCER alone (examples 5&6), we next applied the specific, suicide inhibitor, bromoconduritol-B-epoxide (BrCBE) to intact hairless mouse skin (Simonsen Laboratories, Gilroy, Calif.) (Holleran, W. M. et al., J. Clin. Invest. (1993) 91:1656-1664). BrCBE (325 nmol in 20 μl propylene glycol:ethanol, 7:3 vols) was applied once daily for 0-14 days. (Holleran, W. M. et al. (1994) J. Clin. Inv. 93:1756-1764)
Transepidermal Water Loss was determined by using a MEECO electrolytic water analyzer (MEECO, Warrington, Pa.). Water loss measurements are recorded over a small area of skin (0.5cm^2) in parts per million/0.5cm^2 per hour over background.

β-glucocerebrosidase = biological target: T1, β-glucocerebrosidase (Mus musculus, UniProt P17439); assay: Epidermal β-glucocerebrosidase activity after topical BrCBE; conditions: topical BrCBE 325 nmol once daily
T1 construct: from tissue; host or cells: epidermis of hairless mice (Simonsen Laboratories, Gilroy, Calif.)
T1 sequence (P17439 20-515): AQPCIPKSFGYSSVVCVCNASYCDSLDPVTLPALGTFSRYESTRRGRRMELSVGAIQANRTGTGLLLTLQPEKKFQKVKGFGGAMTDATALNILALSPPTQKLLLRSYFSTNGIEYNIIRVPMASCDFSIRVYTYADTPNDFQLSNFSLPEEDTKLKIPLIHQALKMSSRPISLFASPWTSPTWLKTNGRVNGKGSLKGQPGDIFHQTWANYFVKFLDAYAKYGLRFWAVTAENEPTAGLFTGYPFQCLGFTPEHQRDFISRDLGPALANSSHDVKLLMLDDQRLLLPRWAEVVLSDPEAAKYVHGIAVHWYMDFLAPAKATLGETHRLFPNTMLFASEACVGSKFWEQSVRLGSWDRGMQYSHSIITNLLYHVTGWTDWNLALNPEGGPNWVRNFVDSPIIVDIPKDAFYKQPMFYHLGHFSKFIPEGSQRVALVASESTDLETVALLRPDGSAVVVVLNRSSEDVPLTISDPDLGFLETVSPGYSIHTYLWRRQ
Protocol: as §1

hairless mouse epidermis = assay: Epidermal / stratum corneum lipid content (HPTLC/TLC)
Protocol: Hairless mice were treated with BrCBE for 5 days as described in Example 10. The following high performance thin layer chromatograph (HPTLC) system was developed for optimal separation of ceramides and glucosylceramides for quantitation by spectrodensitometry. Extracts were applied to precleaned 10 ×20 cm HPTLC plates, 0.5 cm from lower edge of the plate and fractionated sequentially in a horizontal developmental chamber (Camag, Muttenz, Switzerland) in the following solvent systems: 1) chloroform:methanol:acetic acid (190:9:1), v/v/v) to the top, twice; 2) chloroform:methanol:acetone (76:20:4, by volume) to 30 mm. Between each development, the plate was dried for 5 minutes on a hot plate (40° C.), cooled for 2 minutes, and equilibrated in the tank with the solvents for 3 minutes. After final development, the plates were dried, cooled, dipped in charring solution (1.5% cupric sulfate in acetic acid:sulfuric acid:orthophosphoric acid:water (50:10:10:30, by volume) for 15 seconds, dried (40° .C) for 5 minutes, and then charred at 180° C. for 15 minutes. Plates were scanned with a variable wavelength scanning densitometer (Camag, Muttenz, Switzerland). Lipid amounts for each fraction were estimated using ceramides 3 and 4, and galactosylceramides 1 and 2 as reference standards (Sigma Chemical Co., St. Louis, Mo.).
The epidermal glucosylceramide content was determined in mice treated with the topical β-glucocerebrosidase inhibitors. Mice were treated with CBE for one day as described in FIG. 22. The mice were sacrificed and whole skin was excised. Subcutaneous fascia and fat were scraped off, and the samples were placed dermis side down onto […] EDTA in PBS-CMF (pH 7.4) and incubated at 37° C. for 40 min. Skin was blotted dry with a tissue and the epidermis was removed by scraping with a surgical blade. The epidermis was minced, placed into microcentrifuge vials, immediately snap frozen and stored in liquid N2 until extracted.
For extraction the tissue was soaked in 7.6 ml Bligh/Dyer extraction media (2 ml chloroform, 4 ml Methanol, 1.6 ml H2O) overnight at room temperature. The following day the tissue was shaken for 20 min. and centrifuged for 10 min. the solvent was removed and the pellet was combined with 7.6 ml Bligh/Dyer media and again shaken and centrifuged. The solvents were combined with solvent from the soaks and filtered through pre-solvent-washed Whatman 43 filter paper, 2 ml chloroform and 2 ml H2O was added to each 7.6 ml quantity of the filtrate and shaken for 10 min. The samples were then centrifuged and the upper phase discarded. The lower phase was washed with 4 ml chloroform, 4 ml MetOH, and 3.6 ml H2O (shaken for 10 min and centrifuged). The upper phase was discarded. The lower phase was dried under N2 in a 47° C. water bath. The lipid was resuspended in chloroform and weighed on the Cahn balance.
TLC was performed using 15-20 μg samples and quantitated against standard glycosylceramide and 40 μg sample for sphingolipids (Holleran, W. M. et al. (1993) J. Clin. Invest. 91:1656-1664).
Both glucosylceramide and ceramide content was then determined in lower (stratum basale) and upper (stratum spinosum, stratum granulosum and stratum corneum) epidermis (FIG. 23). Following 24 hours of CBE treatment samples were excised following treatment (as in Example 16).

hairless mouse skin = assay: Appearance and texture of treated skin
Protocol: as §1

[2] = BrCBE 325 nmol/5cm^2/day, five days

- epidermal β-glucocerebrosidase activity, of normal (β-glucocerebrosidase): 5 % of normal
- reduction of epidermal β-glucocerebrosidase activity (β-glucocerebrosidase): about 95%
- inflammation or edema (hairless mouse skin; BrCBE-treated skin): no indication of inflammation or edema
Structure (SMILES): OC1C(O)C(Br)C2OC2C1O (stereo not shown) [BrCBE, bromoconduritol-B-epoxide]
- TEWL plateau level (defect in permeability barrier function) [1]: 10-15 times normal
- ceramide content, whole epidermis lipid extracts (hairless mouse epidermis; [2]): decrease
- epidermal glucosylceramides, whole epidermis lipid extracts (hairless mouse epidermis; [2]): increased
- increase in stratum corneum glucosylceramides (hairless mouse epidermis; BrCBE 5 days, vs vehicle-treated and/or untreated murine stratum corneum, FIG. 14): eight to ten
- skin moisture content (hairless mouse skin; BrCBE-treated skin): increased moisture content
- skin smoothness and softening of skin surface (hairless mouse skin; BrCBE-treated skin): marked increase
- skin wrinkling (hairless mouse skin; BrCBE-treated vs vehicle-treated skin, visual inspection): reduced
